In general, ED50 refers to the midpoint of the dose-response relation.

Molecules are shown by their SMILES.

The results in this text go back to ChEMBL document CHEMBL3879887, “Aminocyclohexyl ether compounds and uses thereof” (2007).

The subject of one data set is Canis familiaris. As to the kind of experiment: Inhibition of atrial fibrillation in iv dosed Mongrel dog vagal-atrial fibrillation model administered via infusion pump over 5 mins by electrophysiological method. Type of data set: functional, Canis lupus familiaris.
Settings: not given
Regarding `O=C(NCC1CCCCN1)c1cc(OCC(F)(F)F)ccc1OCC(F)(F)F` (stereo not drawn) [FLECAINIDE], the ED was in the range of 1 to 10 µmol/kg.

Tested on in another data set: not listed separately
As to the kind of experiment: Neurotoxicity in iv dosed Sprague-Dawley rat assessed as minimum infusion rate of the compound require for partial and complete convulsion. As to conditions: in vivo. Type of data set: toxicity, organism-based.
For `COc1ccc(CCOC2CCCCC2N2CCCC2)cc1OC.Cl` (stereo not drawn), the Activity is 8 to 21.3 µmol/kg/min.
As to `COc1ccc(CCO[C@H]2CCCCC2N2CC[C@H](OCc3ccccc3)C2)cc1OC.Cl` (stereo partly drawn), the Activity is 8 µmol/kg/min.

Tested on in the next data set: not listed separately
The data set can be described thus: Neurotoxicity in iv dosed Sprague-Dawley rat assessed as total amount of drug infused at the point that partial or complete convulsions are first observed. The class given is toxicity, organism-based. As to conditions: in vivo.
Consider `COc1ccc(CCOC2CCCCC2N2CCCC2)cc1OC.Cl` (stereo not drawn), for which the Activity was 44.4 to 118 µmol/kg.

The next data set deals with Rattus norvegicus. As to the kind of experiment: Antiarrhythmic activity in iv dosed Sprague-Dawley rat coronary artery occlusion model administered via infusion for 5 mins starting 15 post surgery followed by coronary artery occlusion measured for 15 mins by electrocardiogram. The class given is functional.
Settings: not given
Molecule `COc1ccc(CCOC2CCCCC2N2CCCC2)cc1OC.Cl` (stereo not drawn) returned a median effective dose (ED50) of 1.33 to 2.4 µmol/kg/min.

Tested on in a further data set: not listed separately
As to the kind of experiment: Therapeutic index, ratio of neurotoxicity in iv dosed Sprague-Dawley rat assessed as total amount of drug infused at the point that partial or complete convulsions are first observed to 20 times ED50 for antiarrhythmic activity in iv dosed Sprague-Dawley rat coronary artery occlusion model. Type of data set: organism-based. As to conditions: Sprague-Dawley, in vivo, read-out: TI.
For `O[C@@H]1CCN(C2CCCC[C@@H]2OCCc2cc3ccccc3o2)C1` (stereo partly drawn), the selectivity ratio was 3.3.
For `COc1ccc(CCCCO[C@H]2CCCCC2N2CCOCC2)cc1OC` (stereo partly drawn), the selectivity ratio is 2.2.
In the case of `COc1ccc(CCOC2CCCC[C@H]2N2CCN(C(=O)Cc3ccc(OC)c(OC)c3)CC2)cc1OC` (stereo partly drawn), the selectivity ratio was 11.1.
For `COc1ccc(CCO[C@H]2CCCCC2N2CC[C@@H](OCc3ccccc3)C2)cc1OC` (stereo partly drawn), the selectivity ratio came to 2.6.
As for `COc1ccc(CCO[C@H]2CCCCC2N2CC[C@H](OC(C)=O)C2)cc1OC` (stereo partly drawn), the selectivity ratio stood at 2.
Same read-out and setting: the figure for `Clc1cccc(Cl)c1CCOC1CCCC[C@H]1N1CCSC1` (stereo partly drawn) is 2.5.
As for `c1ccc2c(CCO[C@H]3CCCCC3N3CCOCC3)cccc2c1` (stereo partly drawn), the selectivity ratio stood at 4.7.
Consider `COc1ccc(CCO[C@@H]2CCCC[C@H]2N2CC[C@@H](OC(C)=O)C2)cc1OC`, for which the selectivity ratio was 1.8.
As to `O=C1CCN(C2CCCC[C@@H]2OCC(c2ccccc2)c2ccccc2)C1` (stereo partly drawn), the selectivity ratio came out at 3.1.
For `Clc1ccc(CCO[C@H]2CCCCC2N2CCOCC2)cc1Cl` (stereo partly drawn), the selectivity ratio is 3.9.
For `O=C1CCN(C2CCCC[C@@H]2OCCc2c(Cl)cccc2Cl)C1` (stereo partly drawn), the selectivity ratio came to 8.6.
Turning to `OC1CCN(C2CCCC[C@@H]2OCCc2ccccc2Br)C1` (stereo partly drawn), the selectivity ratio is 8.4.
Take `Brc1ccc(CCO[C@H]2CCCCC2N2CCOCC2)cc1` (stereo partly drawn): the selectivity ratio amounted to 2.2.
In the case of `COc1ccc(CCOC2CCCC[C@H]2N2CCC(=O)C2)cc1OC` (stereo partly drawn), the selectivity ratio worked out at 2.6.
As to `Clc1cccc(Cl)c1COC1CCCC[C@H]1N1CCOCC1` (stereo partly drawn), the selectivity ratio is 2.7.
For the molecule `CC(=O)OC1CCN([C@@H]2CCCCC2OCCc2cccc3ccccc23)C1` (stereo partly drawn), the selectivity ratio was found to be 2.3.
The same measure, in the same setting: the figure for `OC1CCN(C2CCCC[C@@H]2OCCc2c(Cl)cccc2Cl)C1` (stereo partly drawn) is 5.4; for `c1ccc2c(CCO[C@H]3CCCCC3N3CCOCC3)csc2c1` (stereo partly drawn) it is 3.3; for `OC1CCN(C2CCCC[C@@H]2OCCn2ccc3ccccc32)C1` (stereo partly drawn) it is 9.4.
In the case of `Brc1ccccc1CCO[C@H]1CCCCC1N1CCOCC1` (stereo partly drawn), the selectivity ratio worked out at 6.3.
`O[C@@H]1CCN(C2CCCC[C@@H]2OCCc2ccccc2C(F)(F)F)C1` (stereo partly drawn): the selectivity ratio worked out at 7.3.
For the molecule `COc1ccc(CCOC2CCCC[C@H]2N2CCC(F)C2)cc1OC` (stereo partly drawn), the selectivity ratio came to 2.3.
On to `c1ccc2cc(CCO[C@H]3CCCCC3N3CCOCC3)ccc2c1` (stereo partly drawn), for which the selectivity ratio was 5.3.
For the molecule `c1ccc2cc(OCCO[C@H]3CCCCC3N3CCOCC3)ccc2c1` (stereo partly drawn), the selectivity ratio worked out at 1.5.
For `Brc1ccc(OCCO[C@H]2CCCCC2N2CCOCC2)cc1` (stereo partly drawn), the selectivity ratio came to 1.4.
On to `COc1ccc(CCO[C@H]2CCCCC2N2CCC[C@@H]2CO)cc1OC` (stereo partly drawn), for which the selectivity ratio was found to be 8.9.
Still for that read-out and setting: as for `COc1ccc(CCO[C@H]2CCCCC2N2CCC3(C2)OCCO3)cc1OC` (stereo partly drawn), the figure is 2.9; as for `COc1cc(CCCO[C@H]2CCCCC2N2CC[C@@H](O)C2)cc(Cl)c1OC` (stereo partly drawn), 7.6.
For the molecule `c1cc(CCO[C@H]2CCCCC2N2CCOCC2)c2ccsc2c1` (stereo partly drawn), the selectivity ratio came to 2.7.
The same measure, in the same setting: as for `COc1ccc(CCOC2CCCCC2N2CCCC2)cc1OC.Cl` (stereo not drawn), the figure is 0.9 to 4.4.
As to `O=C1CCN([C@@H]2CCCCC2OCc2c(Cl)cccc2Cl)C1` (stereo partly drawn), the selectivity ratio amounted to 5.1.
With `Brc1cccc(CCO[C@H]2CCCCC2N2CCOCC2)c1` (stereo partly drawn), the selectivity ratio was found to be 3.3.
In the case of `COc1ccc(CCO[C@H]2CCCCC2N2CC[C@H](OCc3ccccc3)C2)cc1OC.Cl` (stereo partly drawn), the selectivity ratio amounted to 3.8.
Take `FC(F)(F)c1ccccc1CCO[C@H]1CCCC[C@H]1N1CCOCC1` (racemic): the selectivity ratio came out at 3.6.

Still in this data set, the particulars now being: in vivo.
For `Cl.OC1CCN(C2CCCC[C@@H]2OCCc2cccc3ccccc23)C1` (stereo partly drawn), the TI amounted to 4.3.
Turning to `Cl.OC1CCN([C@@H]2CCCC[C@@H]2OCCc2cccc3ccccc23)C1` (stereo partly drawn), the TI came to 8.8.
Regarding `COc1ccc(CCO[C@H]2CCCCC2N2CCOCC2)cc1OC` (stereo partly drawn), the TI stood at 1.4.
In the case of `COc1ccc(CCOC2CCCC[C@H]2N2CCOCC2)cc1OC.Cl` (stereo partly drawn), the TI was found to be 3.8.
